# Data reported in patent publication US11684614B2, “Formulations of hydroxypyridonate actinide/lanthanide decorporation agents” (priority 2017, dated 2023).
# Like-named read-outs stand apart in the source and are kept apart here.
# How the values were obtained:
# [1] = Non-GLP 7-day repeat dose studies in beagle dogs, pharmacokinetics incl. iv group (SRI No. B677-13, M835-11); assay type: in vivo
# Source text: These two pilot studies included an iv administration group so that oral bioavailability could be calculated. The oral bioavailability was low at <3% and essentially the same in both studies regardless of whether the dogs received formulated capsules or 3,4,3-L1(1,2-HOPO) dissolved in PBS without sodium oleate. […] Volume of distribution was 0.3 L/kg, consistent with drug that is distributed primarily to the extracellular space.
# [2] = Prototype oral formulation preparation and physico-chemical characterization (Example 2); assay type: physicochemical; details: powder in bottle compositions
# Method: Suitable formulation methodologies such as direct compression, dry compaction, and/or wet granulation processes were evaluated.
# Powder in bottle (PIB) is one of the most convenient dosage form used in early stage clinical development because of its ease of use. In comparison with capsules, PIB can carry large dose and fill weights. […] The reason for evaluating each composition is also described. […] TABLE 2.14 describes the corresponding properties of the evaluated formulations.
# TABLE 2.16 describes the corresponding properties of the evaluated formulations.
# Chewable tablets are formulated for use in the mouth. They are usually uncoated, and are formulated to provide a release and absorption of the active ingredient(s) in the mouth/buccal cavity or from stomach. […] TABLE 2.18 describes the corresponding properties of the evaluated formulations.
# Various compositions and processes (Direct compression & Wet granulation) were evaluated to formulate conventional tablets with 1000, 750 and/or 500 mg drug load. […]
# [3] = assay type: in vivo, Swiss-Webster mice
# Source text: Formulated material was used in the single dose in vivo ADME characterization studies in Sprague Dawley rats and Swiss-Webster mice with 14C-labeled 3,4,3-L1(1,2-HOPO).
# Pharmacokinetic parameters and disposition/biodistribution of 3,4,3-L1(1,2-HOPO) were characterized in vivo (with the aid of two 14C labels on the spermine backbone of the parent product) in two non-GLP studies using Swiss-Webster mice and Sprague Dawley rats. The study designs for these two studies are shown in TABLE 5.1 and TABLE 5.2, respectively. Groups of six mice (3 male, 3 female) were given a single dose of [14C]-3,4,3-L1(1,2-HOPO) via iv, ip, or po routes, respectively. An additional group of six mice (3 male, 3 female) were administered the 14C-labeled API with permeability enhancer (10% sodium oleate) by oral gavage (po). Similarly, groups of six rats (3 male, 3 female) were administered a single iv dose of the 14C-labeled API or a single po dose of the 14C-labeled API with 10% sodium oleate. In each of these studies, samples were collected at scheduled time points up to 24 hr post-dose and analyzed for 14C content using liquid scintillation counting. Blood, liver, kidney, feces and urine were collected and analyzed from the mice. Blood, brain, liver, kidney, lungs, spleen, skeletal muscle tissues, gastrointestinal (GI) tract samples, carcasses, feces, and urine were collected and analyzed from the rats.
# [4] = Double-Sink PAMPA permeability assay with permeation enhancers (flux ratio); assay type: in vitro ADME; details: compared with reference compound Ranitidine
# Method: The objective of the analytical study described in Part C of this report was to assess the feasibility of enhancing the permeability of the active pharmaceutical ingredient 3,4,3-L1(1,2-HOPO) using oral permeation enhancers. Evaluation was performed using an in vitro pK assay based on the Double-Sink™ PAMPA technology developed by pION, Inc.
# The permeability enhancement study was performed in two stages. In the first stage (TABLE 10.1), 15 formulations were prepared and screened. The second stage (TABLE 10.2) was performed to refine the concentrations of the permeability enhancers that seemed to display permeability enhancement in the first screening. The screening conditions for both stages are listed below. The sample solutions were stored throughout the study in 20 mL clear scintillation glass vials with polypropylene cap and pulp foil liner, wrapped in aluminum foil.
# • Test Solutions: Vehicles containing the permeation enhancers were prepared by weighing the adequate quantity of enhancer and dissolving it into 100 mL of purified water to reach the designated concentration. Test solutions were then prepared by weighing 10 mg of 3,4,3-L1(1,2-HOPO), dissolving it into 10 mL of each of the vehicles to reach a concentration of 1 mg/mL (purified water was used for the control solution). The final pH and clarity of each solution were recorded. […]
# [5] = 7-day oral gavage study in Sprague Dawley rats (SRI No. M801-10); assay type: in vivo
# [6] = po, female mice, formulated with sodium oleate
# [7] = po, female mice, without sodium oleate
# [8] = po, male mice, formulated with sodium oleate
# [9] = po, male mice, without sodium oleate
compound,measurement,setting,value
"O=C(NCCCN(CCCCN(CCCNC(=O)c1cccc(=O)n1O)C(=O)c1cccc(=O)n1O)C(=O)c1cccc(=O)n1O)c1cccc(=O)n1O [3,4,3-L1(1,2-HOPO)]",accumulation in the plasma,[1]; after 7 days of dosing,did not accumulate in the plasma
same,oral bioavailability,[1]; formulated capsules or API in PBS without sodium oleate,< 3%
same,Volume of distribution,[1]; iv 37.6 mg/kg (50 μmol/kg),0.3 L/kg
same,clearance (Cl),[1]; iv 37.6 mg/kg (50 μmol/kg),9.9 mL/min/kg
same,mean AUCinf,[1]; iv 37.6 mg/kg (50 μmol/kg),64000 ng·h/mL
same,observed peak plasma level,[1]; iv 37.6 mg/kg (50 μmol/kg),115 ± 11 µg/mL
same,t½,[1]; iv 37.6 mg/kg (50 μmol/kg),24 min
same,behavior when reconstituted in water,[2],formed a sticky mass
same,oral bioavailability (F) of radioactive compound,[3]; female mice,2.6%
same,oral bioavailability (F) of radioactive compound,[3]; male mice,1.2%
same,enhancement of exposure parameters with sodium oleate,[3]; mice,2- to 3 fold
same,oral bioavailability improvement with sodium oleate,[3]; mice,about 2 fold
same,Tmax,"[3]; oral dose, rodents (mice)",~42 min
same,AUC calculated over 2 hr posttreatment,[3]; [6],35.1±18.9 min Pg-eq/ml
same,Cmax,[3]; [6],1.4 Pg-eq/ml
same,AUC calculated over 2 hr posttreatment,[3]; [7],23.0±15.4 min Pg-eq/ml
same,Cmax,[3]; [7],0.55 Pg-eq/ml
same,AUC calculated over 2 hr posttreatment,[3]; [8],17.4±6.7 min Pg-eq/ml
same,Cmax,[3]; [8],0.93 Pg-eq/ml
same,AUC calculated over 2 hr posttreatment,[3]; [9],8.3±6.2 min Pg-eq/ml
same,Cmax,[3]; [9],0.32 Pg-eq/ml
same,Cmax improvement with sodium oleate,"[3]; po, mice",approximately 3 fold
same,permeability (PAMPA),[4],very low permeability
same,renal findings,[5]; 7 days of oral gavage,no renal findings
same,soft stools or diarrhea,[5]; oral gavage 400-1300 mg/kg (532-1732 μmol/kg) for 7 days,not observed
